These compounds were tested against T1, RORc (Homo sapiens, UniProt P51449) (assay: In Vitro RORc Ligand Binding Assay). Details: IC50 values for RORc.
T1 construct: host or cells: E. coli
T1 sequence (P51449 269-508 limits assumed): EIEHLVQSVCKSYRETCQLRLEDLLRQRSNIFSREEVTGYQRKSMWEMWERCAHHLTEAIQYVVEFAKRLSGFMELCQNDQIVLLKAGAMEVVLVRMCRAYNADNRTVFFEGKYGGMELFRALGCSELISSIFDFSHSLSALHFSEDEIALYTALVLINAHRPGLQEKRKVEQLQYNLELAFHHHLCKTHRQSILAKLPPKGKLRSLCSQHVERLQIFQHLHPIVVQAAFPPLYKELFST
Description: This assay was used to determine a compound's potency in inhibiting activity of RORc by determining, Kiapp, IC50, or percent inhibition values.
On day of the assay, 100 uL of 0.05% CHAPS (in deionized H2O) was added to all wells of the GFB Unifilter plate and allowed soak for 1 h. A wash buffer of 50 mM HEPES (pH 7.4), 150 mM NaCl, and 5 mM MgCl2 was prepared to wash the filter plate. To prepare an assay buffer, BSA was added to the wash buffer to reach 0.01% and DTT was added to reach 1 mM.
The 20× compound stocks were diluted in DMSO with Assay Buffer 4-fold to reach 5× the final test concentration in 25% DMSO (10 uL compound+30 uL Assay Buffer). Solutions were mixed by aspiration several times with a pipette set on 50 uL volume.
For two point screening, 10 mM stock compound solutions were diluted in DMSO to obtain 200 uM (20× the high test concentration) and then diluted 10-fold further to reach 20 uM (20× the low test concentration). The 20× stocks were diluted 4-fold with Assay Buffer (10 uL compound+30 uL Assay Buffer) to reach 5× the test concentrations (50 uM and 5 uM) and 10 uL were added to two assay plates for the duplicate wells. With each concentration tested on 2 plates, each set of 80 compounds used 4 assay plates (1 uM and 10 uM, with n=2).
For 25-hydroxycholesterol in 25% DMSO/75% Assay Buffer; 10 uL per well was used for NSB samples. Wells for Total Binding and No Receptor sample determination contained 10 uL of 25% DMSO/75% Assay Buffer per well.
Add 20 uL to all wells to reach 6 nM final concentration in the assay.
Stock receptor solution was diluted in assay buffer to obtain 1.5 ug/mL in Assay Buffer. 20 uL was added to all wells. For No Receptor samples, 20 uL Assay Buffer was substituted for receptor solution.
Assay plates were 96-well polypropylene V-bottom plates. […] 10 uL of 25% DMSO/75% Assay Buffer was added to Total Binding or No Receptor wells. 10 uL of 5 uM 25-hydroxycholesterol in 25% DMSO/75% Assay Buffer was added to NSB wells. […] 20 uL of 1.5 ug/mL RORc receptor was added to wells (or 40 uL Assay Buffer to No R wells). Following addition to the wells, the plates were incubated 3 h at 25° C.
Using a Packard Filtermate Harvester, the filter plate were washed 4 times following transfer of the incubated samples. Plates were dry-filtered completely (2 h at 50° C. or overnight at room temperature). 50 uL Microscint 0 was added to all wells and read on Topcount protocol Inverted.
Final concentrations were as follows: 50 mM HEPES buffer (pH 7.4); 150 mM NaCl; 1 mM DTT; 5 mM MgCl2; 0.01% BSA; 5% DMSO; 0.6 ug/mL RORc receptor; 6 nM 25-[^3H]hydroxycholesterol. For NSB wells, 1 uM 25-hydroxycholesterol was also present.
Work on `C[C@H]1CC[C@H](c2ccccc2)S(=O)(=O)N1Cc1cc(F)c([C@]2(C(N)=O)C[C@](C)(O)C2)cc1F` [Compound 48, 1-[2,5-difluoro-4-[[(3S,6R)-3-methyl-1,1-dioxo-6-phenyl-thiazinan-2-yl]methyl]phenyl]-3-hydroxy-3-methyl-cyclobutanecarboxamide] yielded an IC50 of 4.7 nM.
For `C[C@H]1CC[C@H](c2ccccc2)S(=O)(=O)N1Cc1cc(F)c(C2=CC(=O)C2)cc1F` [Compound 15, 3-[2,5-difluoro-4-[[(3S,6R)-3-methyl-1,1-dioxo-6-phenyl-thiazinan-2-yl]methyl]phenyl]cyclobut-2-en-1-one], the IC50 was 6.5 nM.
`COc1cc(C(=O)NC(C)c2cc(F)c(CN3[C@@H](C)CC[C@H](c4ccccc4)S3(=O)=O)cc2F)on1` (stereo in doubt) [Compound 74, N-[1-[2,5-difluoro-4-[[(3S,6R)-3-methyl-1,1-dioxo-6-phenyl-thiazinan-2-yl]methyl]phenyl]ethyl]-3-methoxy-isoxazole-5-carboxamide] gave an IC50 of 7.3 nM.
`CC(NC(=O)c1cncs1)c1cc(F)c(CN2[C@@H](C)CC[C@H](c3ccccc3)S2(=O)=O)cc1F` (stereo in doubt) [Compound 72, N-[1-[2,5-difluoro-4-[[(3S,6R)-3-methyl-1,1-dioxo-6-phenyl-thiazinan-2-yl]methyl]phenyl]ethyl]thiazole-5-carboxamide] gave an IC50 of 6.3 nM.
`C[C@H]1CC[C@H](c2ccccc2)S(=O)(=O)N1Cc1ccc(C2(C(=O)NC3CC(O)C3)CCOCC2)cc1F` (stereo partly drawn) [Compound 34, 4-[3-fluoro-4-[[(3S,6R)-3-methyl-1,1-dioxo-6-phenyl-thiazinan-2-yl]methyl]phenyl]-N-(3-hydroxycyclobutyl)tetrahydropyran-4-carboxamide] was tested, and the IC50 was 13.6 nM.
For `C[C@H]1CC[C@H](c2ccccc2)S(=O)(=O)N1Cc1cc(F)c([C@@H](CCC#N)C(N)=O)cc1F` [Compound 17, (2R)-4-cyano-2-[2,5-difluoro-4-[[(3S,6R)-3-methyl-1,1-dioxo-6-phenyl-thiazinan-2-yl]methyl]phenyl]butanamide], the IC50 was 82.7 nM.
`Cc1cc(C(=O)NC(C)c2cc(F)c(CN3[C@@H](C)CC[C@H](c4ccccc4)S3(=O)=O)cc2F)on1` (stereo in doubt) [Compound 67, N-[1-[2,5-difluoro-4-[[(3S,6R)-3-methyl-1,1-dioxo-6-phenyl-thiazinan-2-yl]methyl]phenyl]ethyl]-3-methyl-isoxazole-5-carboxamide] showed an IC50 of 6.5 nM.
Compound `C[C@H]1CC[C@H](c2ccccc2)S(=O)(=O)N1Cc1cc(F)c(C2(NC(=O)C3CC3)COC2)cc1F` (stereo in doubt) [Compound 46, N-[3-[2,5-difluoro-4-[[(3S,6R)-3-methyl-1,1-dioxo-6-phenyl-thiazinan-2-yl]methyl]phenyl]oxetan-3-yl]cyclopropanecarboxamide] has an IC50 of 33.1 nM.
In the case of `CC(NC(=O)c1ccnn1C)c1cc(F)c(CN2[C@@H](C)CC[C@H](c3ccccc3)S2(=O)=O)cc1F` (stereo in doubt) [Compound 69, N-[1-[2,5-difluoro-4-[[(3S,6R)-3-methyl-1,1-dioxo-6-phenyl-thiazinan-2-yl]methyl]phenyl]ethyl]-2-methyl-pyrazole-3-carboxamide], the IC50 is reported as 74.5 nM.
`CC(NC(=O)c1cocn1)c1cc(F)c(CN2[C@@H](C)CC[C@H](c3ccccc3)S2(=O)=O)cc1F` (stereo in doubt) [Compound 65, N-[1-[2,5-difluoro-4-[[(3S,6R)-3-methyl-1,1-dioxo-6-phenyl-thiazinan-2-yl]methyl]phenyl]ethyl]oxazole-4-carboxamide] gave an IC50 of 167 nM.
Work on `Cc1nnc(C(=O)NC(C)c2cc(F)c(CN3[C@@H](C)CC[C@H](c4ccccc4)S3(=O)=O)cc2F)o1` (stereo in doubt) [Compound 73, N-[1-[2,5-difluoro-4-[[(3S,6R)-3-methyl-1,1-dioxo-6-phenyl-thiazinan-2-yl]methyl]phenyl]ethyl]-5-methyl-1,3,4-oxadiazole-2-carboxamide] yielded an IC50 of 9.3 nM.
Compound `C[C@H]1CC[C@H](c2ccccc2)S(=O)(=O)N1Cc1cc(F)c([C@@](C)(CO)C(N)=O)cc1F` [Compound 10, (2S)-2-[2,5-difluoro-4-[[(3S,6R)-3-methyl-1,1-dioxo-6-phenyl-thiazinan-2-yl]methyl]phenyl]-3-hydroxy-2-methyl-propanamide] has an IC50 of 35.4 nM.
Compound `CC(NC(=O)c1cnccn1)c1cc(F)c(CN2[C@@H](C)CC[C@H](c3ccccc3)S2(=O)=O)cc1F` (stereo in doubt) [Compound 57, N-[1-[2,5-difluoro-4-[[(3S,6R)-3-methyl-1,1-dioxo-6-phenyl-thiazinan-2-yl]methyl]phenyl]ethyl]pyrazine-2-carboxamide] has an IC50 of 145 nM.
In the case of `C[C@H]1CC[C@H](c2ccccc2)S(=O)(=O)N1Cc1cc(F)c(C2(C(=O)N[C@H]3C[C@H](O)C3)CCOCC2)cc1F` [Compound 37, 4-[2,5-difluoro-4-[[(3S,6R)-3-methyl-1,1-dioxo-6-phenyl-thiazinan-2-yl]methyl]phenyl]-N-(3-hydroxycyclobutyl) tetrahydropyran-4-carboxamide], the IC50 is reported as 47.6 nM.
With `C[C@H]1CC[C@H](c2ccccc2)S(=O)(=O)N1Cc1cc(F)c([C@H](CC2COC2)C(N)=O)cc1F` [Compound 4, (2S)-2-[2,5-difluoro-4-[[(3S,6R)-3-methyl-1,1-dioxo-6-phenyl-thiazinan-2-yl]methyl]phenyl]-3-(oxetan-3-yl)propanamide] the IC50 was 31.8 nM.
`Cc1n[nH]cc1C(=O)NC(C)c1cc(F)c(CN2[C@@H](C)CC[C@H](c3ccccc3)S2(=O)=O)cc1F` (stereo in doubt) [Compound 53, N-[1-[2,5-difluoro-4-[[(3S,6R)-3-methyl-1,1-dioxo-6-phenyl-thiazinan-2-yl]methyl]phenyl]ethyl]-3-methyl-1H-pyrazole-4-carboxamide] gave an IC50 of 14 nM.
In the case of `CC(NC(=O)c1cnn(C)c1)c1cc(F)c(CN2[C@@H](C)CC[C@H](c3ccccc3)S2(=O)=O)cc1F` (stereo in doubt) [Compound 61, N-[1-[2,5-difluoro-4-[[(3S,6R)-3-methyl-1,1-dioxo-6-phenyl-thiazinan-2-yl]methyl]phenyl]ethyl]-1-methyl-pyrazole-4-carboxamide], the IC50 is reported as 14 nM.
With `CC(NC(=O)c1ccno1)c1cc(F)c(CN2[C@@H](C)CC[C@H](c3ccccc3)S2(=O)=O)cc1F` (stereo in doubt) [Compound 55, N-[1-[2,5-difluoro-4-[[(3S,6R)-3-methyl-1,1-dioxo-6-phenyl-thiazinan-2-yl]methyl]phenyl]ethyl]isoxazole-5-carboxamide] the IC50 was 11 nM.
`C[C@H]1CC[C@H](c2ccccc2)S(=O)(=O)N1Cc1cc(F)c(C2(C(=O)N[C@H]3C[C@@H](O)C3)CCOCC2)cc1F` [Compound 38, 4-[2,5-difluoro-4-[[(3S,6R)-3-methyl-1,1-dioxo-6-phenyl-thiazinan-2-yl]methyl]phenyl]-N-(3-hydroxycyclobutyl) tetrahydropyran-4-carboxamide] showed an IC50 of 32.6 nM.
`C[C@H]1CC[C@H](c2ccccc2)S(=O)(=O)N1Cc1cc(F)c([C@](C)(CO)C(N)=O)cc1F` [Compound 11, (2R)-2-[2,5-difluoro-4-[[(3S,6R)-3-methyl-1,1-dioxo-6-phenyl-thiazinan-2-yl]methyl]phenyl]-3-hydroxy-2-methyl-propanamide] was tested, and the IC50 was 18.7 nM.

— patent publication US20180263996A1, “ARYL SULTAM DERIVATIVES AS RORc MODULATORS” (Genentech, Inc., priority 2015, published 2018)
